According to patent US6420121B1, “Prevention of cell migration initiation with CMV US28 receptor antagonists” (Oregon Health Sciences University, priority 1998, dated 2002):
Entries after “also recorded” stand apart in the source; their conditions may differ.

B1: RANTES: C-C chemokine, US28 receptor ligand (protein, UniProt P13501 24-91, looked up)
C-C motif chemokine 5: SPYSSDTTPCCFAYIARPLPRAHIKEYFYTSGKCSNPAVVFVTRKNRQVCANPEKKWVREYINSLEMS

Tests used:
HCMV infected SMCs = experiment: HCMV-induced SMC migration assay (migration chamber); format: cell-based; conditions: for inhibition of HCMV-induced SMC migration: SMCs infected with HCMV, FIG. 7 and FIG. 9
From the text: The present invention provides an assay for determining therapeutic activity of US28 receptor antagonists, comprising (a) obtaining and isolating smooth muscle cells into a first chamber of a migration device, wherein the first migration chamber comprises growth media chambers and is defined by a first side of a membrane and chamber walls, and wherein the migration device comprises a second chamber defined by the second side of the membrane and having an enclosed space; (b) infecting the smooth muscle cells with human cytomegalovirus (HCVM) containing a gene encoding the US28 receptor; (c) adding a candidate therapeutic agent to the first chamber; and (d) determining the amount of cellular migration into the second chamber, whereby inhibition of cellular migration of infected smooth muscle cells indicates therapeutic activity. Preferably, the smooth muscle cells are isolated from pulmonary arteries. Preferably, the membrane has a pore size of from about 2 to about 10 microns. Most preferably, the membrane pore size is about 3 microns. Preferably the amount of cellular migration is determined by an assay for counting the number of smooth muscle cells in the second chamber wherein the assay for counting the number of smooth muscle cells is selected from the group consisting of microscopic cell counting per unit area, radiolabeling the smooth muscle cells and counting radioactivity in the second chamber, attaching a fluorescent probe to the smooth muscle cells and measuring fluorescence within the second chamber, and combinations thereof.
SMCs are cultured in the upper chamber and infected with HCMV (preferably at or near MOI11). Only cells that are infected will migrate through a filter (preferably 3 micron) to the lower chamber. The cells in the lower chamber are counted by microscopy or labeled with a radioactive or fluorescent label.
The present invention provides an assay for determining therapeutic activity of US28 receptor antagonists, comprising (a) obtaining and isolating smooth muscle cells into a first chamber of a migration device, wherein the first migration chamber comprises growth media chambers and is defined by a first side of a membrane and chamber walls, and wherein the migration device comprises a second chamber defined by the second side of the membrane and having an enclosed space; (b) infecting the smooth muscle cells with human cytomegalovirus (HCVM) containing a gene encoding the US28 receptor; (c) adding a candidate therapeutic agent to the first chamber; and (d) determining the amount of cellular migration into the second chamber, whereby inhibition of cellular migration of infected smooth muscle cells indicates therapeutic activity. Preferably, the smooth muscle cells are isolated from pulmonary arteries. […]

[1] = test system: US28 transfected smooth muscle cell; experiment: US28 SMC migration with PTK pathway inhibitors (FIG. 15); format: cell-based

| Molecule | inhibition of HCMV-induced SMC migration (HCMV infected SMCs) | inhibition of US28 SMC migration [1] | other results |
| --- | --- | --- | --- |
| O=C(O)P(=O)(O)O [foscarnet] | did not inhibit SMC migration; also recorded: did not inhibit migration of infected smooth muscle cells | – | – |
| CO[C@H]1[C@@H](OC)C[C@H](C)[C@@H](OC)C2=CC(=O)C=C(NC(=O)/C(C)=C/C=C\[C@H](OC)[C@@H](OC(N)=O)/C(C)=C/[C@@H]1C)C2=O [herbimycin A, Herbimycin A] | – | effective in inhibiting US28 transfected smooth muscle cell migration | – |
| PDGF | – | – | induction of cell migration in SMCs (HCMV infected SMCs; SMCs treated with PDGF, compared with HCMV infection, FIG. 7): did not cause cell migration in SMCs to nearly the extent as HCMV infection |
| Pertussis toxin | – | had no effect | – |
| C[C@@H]1C[C@@H]([C@H](O)CC2CC(=O)NC(=O)C2)C(=O)[C@@H](C)C1 [cyclohexamide] | blocked | – | – |
| B1 | – | – | SMC migration on addition of chemokine (HCMV infected SMCs; HCMV-GFP-infected SMCs, FIG. 12): increased SMC migration in a dose-dependent manner |
